Molecular target: Estrogen receptor beta (Homo sapiens, UniProt Q92731)
Sequence (Q92731 whole entry): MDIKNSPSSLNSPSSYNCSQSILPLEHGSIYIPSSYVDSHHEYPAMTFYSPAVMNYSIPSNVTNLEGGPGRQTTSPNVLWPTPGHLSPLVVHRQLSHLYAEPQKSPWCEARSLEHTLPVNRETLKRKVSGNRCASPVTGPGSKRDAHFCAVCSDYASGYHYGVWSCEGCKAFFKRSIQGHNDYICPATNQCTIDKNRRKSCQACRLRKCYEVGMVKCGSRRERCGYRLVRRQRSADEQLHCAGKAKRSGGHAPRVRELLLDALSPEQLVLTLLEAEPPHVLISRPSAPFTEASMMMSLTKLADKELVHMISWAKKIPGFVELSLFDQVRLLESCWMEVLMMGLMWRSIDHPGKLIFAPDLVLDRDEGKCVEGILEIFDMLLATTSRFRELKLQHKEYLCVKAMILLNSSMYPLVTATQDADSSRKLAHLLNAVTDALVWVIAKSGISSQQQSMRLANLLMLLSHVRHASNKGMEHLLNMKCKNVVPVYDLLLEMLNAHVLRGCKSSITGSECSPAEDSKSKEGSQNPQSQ
Description: Transcriptional potency (EC50) at Human estrogen receptor Beta

| SMILES | EC50 [nM] |
| --- | --- |
| N#CC[C@H](Cc1ccc(O)cc1)c1ccc(O)cc1 | 30 |
| N#C/C(=C\c1ccc(O)cc1)c1ccc(O)cc1 | 140 |
| O=C(C(Cc1ccc(O)cc1)c1ccc(O)cc1)C(F)(F)F (stereo not given) | 160 |
| COC(=O)C(Cc1ccc(O)cc1)c1ccc(O)cc1 (stereo not given) | 4.9 |
| Oc1ccc(CC(c2ccc(O)cc2)C(F)(F)F)cc1 (stereo not given) | 2 |
| N#CC(C#N)(Cc1ccc(O)cc1)c1ccc(O)cc1 | 21 |
| CC(=O)C(Cc1ccc(O)cc1)c1ccc(O)cc1 (stereo not given) | 35 |
| Cc1cc(O)ccc1C(C#N)Cc1ccc(O)cc1 (stereo not given) | 1.7 |
| CC#CC(Cc1ccc(O)cc1)c1ccc(O)cc1 (stereo not given) | 2.1 |
| C#CC(Cc1ccc(O)cc1)c1ccc(O)cc1 (stereo not given) | 1.4 |
| C[C@H](c1ccc(O)cc1)[C@@H](C#N)c1ccc(O)cc1 | 0.14 |
| N#CC(c1ccc(O)cc1)C(C#N)c1cccc(O)c1 (stereo not given) | 110 |
| N#CC(c1ccc(O)cc1)C(C#N)c1ccc(O)cc1 (stereo in doubt) | 0.42 |
| Cc1cc(O)ccc1CC(C#N)c1ccc(O)cc1 (stereo not given) | 0.37 |
| CC[C@H](c1ccc(O)cc1)[C@@H](C#N)c1ccc(O)cc1 | 0.15 |
| N#CC(c1ccc(O)cc1)C(C#N)c1ccc(O)cc1 (stereo in doubt; 31a(dl)) | 0.41 |
| N#C/C(=C/c1ccc(O)cc1)c1ccc(O)cc1 | 220 |
| C#CC(c1ccc(O)cc1)C(C#C)c1ccc(O)cc1 (racemic) | 3.7 |
| CC(C#N)(Cc1ccc(O)cc1)c1ccc(O)cc1 (stereo not given) | 8 |
| Oc1ccc(CC(c2ccc(O)cc2)C(F)(F)C(F)(F)F)cc1 (stereo not given) | 15 |

— ChEMBL document CHEMBL1134292, “Estrogen receptor-beta potency-selective ligands: structure-activity relationship studies of diarylpropionitriles and their acetylene and polar analogues” (J Med Chem, 2001)
